Experimental data: patent US12226412B2, “Heteroaryl-ketone fused azadecalin glucocorticoid receptor modulators” (Corcept Therapeutics, Inc., priority 2012, dated 2025)

Key:
[1] = tested on: induction of TAT by dexamethasone in HepG2 cells; assay: HepG2 tyrosine aminotransferase (TAT) assay; type: cell-based, human; conditions: HepG2 cells, challenge of 100 nM dexamethasone; Ki from IC50 by Cheng and Prusoff equation
[2] = target: T1, human recombinant GR (Homo sapiens, UniProt P04150); assay: Human glucocorticoid receptor (GR) fluorescence polarisation (FP) binding assay; conditions: human recombinant GR, fluorescence polarisation binding assay; read-out: GR binding
T1 construct: purchased PanVera P2812
T1 sequence (P04150 1-777): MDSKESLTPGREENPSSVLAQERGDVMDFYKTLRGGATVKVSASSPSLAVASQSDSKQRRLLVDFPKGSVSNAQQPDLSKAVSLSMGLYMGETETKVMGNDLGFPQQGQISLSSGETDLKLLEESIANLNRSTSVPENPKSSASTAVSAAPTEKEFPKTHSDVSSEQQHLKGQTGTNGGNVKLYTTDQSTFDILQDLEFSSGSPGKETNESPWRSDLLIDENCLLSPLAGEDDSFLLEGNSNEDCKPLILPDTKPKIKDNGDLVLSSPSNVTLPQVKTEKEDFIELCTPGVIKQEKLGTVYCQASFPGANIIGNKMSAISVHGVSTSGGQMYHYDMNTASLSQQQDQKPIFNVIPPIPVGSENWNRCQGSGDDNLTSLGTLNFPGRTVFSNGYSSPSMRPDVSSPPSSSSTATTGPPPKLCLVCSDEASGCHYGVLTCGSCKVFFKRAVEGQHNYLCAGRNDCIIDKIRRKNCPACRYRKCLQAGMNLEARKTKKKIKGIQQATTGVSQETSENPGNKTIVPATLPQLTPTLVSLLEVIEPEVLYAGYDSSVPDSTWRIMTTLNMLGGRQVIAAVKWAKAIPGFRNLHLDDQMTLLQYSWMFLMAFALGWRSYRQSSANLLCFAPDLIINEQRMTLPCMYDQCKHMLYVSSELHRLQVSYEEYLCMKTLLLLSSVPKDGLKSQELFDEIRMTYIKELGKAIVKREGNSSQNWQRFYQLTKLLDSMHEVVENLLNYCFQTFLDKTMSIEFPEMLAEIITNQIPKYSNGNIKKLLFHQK
Outline: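 Competition fluorescence polarisation: 0.5 nM GS Red labelled glucocorticoid and 1 nM recombinant human GR with 8-point half-log compound series, 1% DMSO, 4 h room temperature, potassium phosphate pH 7.4 buffer with molybdate, EDTA, DTT. Affinity derived from the drop in polarisation, normalised to blank wells.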

Row | Compound | Ki [2] [nM] | Ki [1] [nM]
1 | Cc1ccnc(C(=O)[C@]23Cc4cnn(-c5ccc(F)cc5)c4C=C2CCN(S(=O)(=O)c2cnn(C)c2C)C3)c1 [Example 11AI, (R)-(6-((1,5-dimethyl-1H-pyrazol-4-yl)sulfonyl)-1-(4-fluorophenyl)-4,4a,5,6,7,8-hexahydro-1H-pyrazolo[3,4-g]isoquinolin-4a-yl)(4-methylpyridin-2-yl)methanone] | < 0.5 | < 20
2 | COc1ccc(C(=O)[C@]23Cc4cnn(-c5ccc(F)cc5)c4C=C2CCN(S(=O)(=O)c2ccc(C(F)(F)F)cc2)C3)nc1 [Example 5H, (R)-(1-(4-fluorophenyl)-6-((4-(trifluoromethyl)phenyl)sulfonyl)-4,4a,5,6,7,8-hexahydro-1H-pyrazolo[3,4-g]isoquinolin-4a-yl)(5-methoxypyridin-2-yl)methanone] | 0.5 to 1 | < 20
3 | CCn1cc(S(=O)(=O)N2CCC3=Cc4c(cnn4-c4ccc(F)cc4)C[C@]3(C(=O)c3ccccn3)C2)nn1 [Example 11CJ, (R)-(6-((1-ethyl-1H-1,2,3-triazol-4-yl)sulfonyl)-1-(4-fluorophenyl)-4,4a,5,6,7,8-hexahydro-1H-pyrazolo[3,4-g]isoquinolin-4a-yl)(pyridin-2-yl)methanone] | < 0.5 | 20 to 100
4 | Cn1ccc(S(=O)(=O)N2CCC3=Cc4c(cnn4-c4ccc(F)cc4)C[C@]3(C(=O)c3ccccn3)C2)n1 [Example 11BJ, (R)-(1-(4-fluorophenyl)-6-((1-methyl-1H-pyrazol-3-yl)sulfonyl)-4,4a,5,6,7,8-hexahydro-1H-pyrazolo[3,4-g]isoquinolin-4a-yl)(pyridin-2-yl)methanone] | < 0.5 | 20 to 100
5 | O=C(c1nccs1)[C@]12Cc3cnn(-c4ccc(F)cc4)c3C=C1CCN(S(=O)(=O)c1cccc(F)c1)C2 [Example 5A, (R)-(1-(4-fluorophenyl)-6-((3-fluorophenyl)sulfonyl)-4,4a,5,6,7,8-hexahydro-1H-pyrazolo[3,4-g]isoquinolin-4a-yl)(thiazol-2-yl)methanone] | < 0.5 | < 20
6 | COc1ccc(S(=O)(=O)N2CCC3=Cc4c(cnn4-c4ccc(F)cc4)C[C@]3(C(=O)c3ccccn3)C2)cc1F [Example 11D, (R)-(6-((3-fluoro-4-methoxyphenyl)sulfonyl)-1-(4-fluorophenyl)-4,4a,5,6,7,8-hexahydro-1H-pyrazolo[3,4-g]isoquinolin-4a-yl)(pyridin-2-yl)methanone] | < 0.5 | < 20
7 | CC(C)n1nncc1S(=O)(=O)N1CCC2=Cc3c(cnn3-c3ccc(F)cc3)C[C@]2(C(=O)c2ccccn2)C1 [Example 11CU, (R)-(1-(4-fluorophenyl)-6-((1-isopropyl-1H-1,2,3-triazol-5-yl)sulfonyl)-4,4a,5,6,7,8-hexahydro-1H-pyrazolo[3,4-g]isoquinolin-4a-yl)(pyridin-2-yl)methanone] | 0.5 to 1 | 20 to 100
8 | O=C(c1ccccn1)[C@]12Cc3cnn(-c4ccc(F)cc4)c3C=C1CCN(S(=O)(=O)c1ccc(N3CCCC3)nc1)C2 [Example 8, (R)-(1-(4-fluorophenyl)-6-((6-(pyrrolidin-1-yl)pyridin-3-yl)sulfonyl)-4,4a,5,6,7,8-hexahydro-1H-pyrazolo[3,4-g]isoquinolin-4a-yl)(pyridin-2-yl)methanone] | < 0.5 | ≥ 100
9 | CC(C)n1cc(S(=O)(=O)N2CCC3=Cc4c(cnn4-c4ccc(F)cc4)C[C@]3(C(=O)c3ccccn3)C2)cn1 [Example 11CD, (R)-(1-(4-fluorophenyl)-6-((1-isopropyl-1H-pyrazol-4-yl)sulfonyl)-4,4a,5,6,7,8-hexahydro-1H-pyrazolo[3,4-g]isoquinolin-4a-yl)(pyridin-2-yl) methanone] | < 0.5 | < 20
10 | Cc1n[nH]c(C)c1S(=O)(=O)N1CCC2=Cc3c(cnn3-c3ccc(F)cc3)C[C@]2(C(=O)c2cc(C(F)(F)F)ccn2)C1 [Example 2V, (R)-(6-((3,5-dimethyl-1H-pyrazol-4-yl)sulfonyl)-1-(4-fluorophenyl)-4,4a,5,6,7,8-hexahydro-1H-pyrazolo[3,4-g]isoquinolin-4a-yl)(4-(trifluoromethyl)pyridin-2-yl)methanone] | > 1 | 20 to 100
11 | O=C(c1ccccn1)[C@]12Cc3cnn(-c4ccccc4)c3C=C1CCN(S(=O)(=O)c1cccc(C(F)(F)F)c1)C2 [Example 11AZ, (R)-(1-phenyl-6-((3-(trifluoromethyl)phenyl)sulfonyl)-4,4a,5,6,7,8-hexahydro-1H-pyrazolo[3,4-g]isoquinolin-4a-yl)(pyridin-2-yl)methanone] | < 0.5 | 20 to 100
12 | O=C(c1ccccn1)[C@]12Cc3cnn(-c4ccc(F)cc4)c3C=C1CCN(S(=O)(=O)c1ccc(OC(F)F)cc1)C2 [Example 11H, (R)-(6-((4-(difluoromethoxy)phenyl)sulfonyl)-1-(4-fluorophenyl)-4,4a,5,6,7,8-hexahydro-1H-pyrazolo[3,4-g]isoquinolin-4a-yl)(pyridin-2-yl)methanone] | < 0.5 | < 20

More lines, main results first:

Row | Ki [2] [nM] | Compound | Ki [1] [nM]
13 | < 0.5 | CCCn1cc(S(=O)(=O)N2CCC3=Cc4c(cnn4-c4ccc(F)cc4)C[C@]3(C(=O)c3nccs3)C2)cn1 [Example 12Y, (R)-(1-(4-fluorophenyl)-6-((1-propyl-1H-pyrazol-4-yl)sulfonyl)-4,4a,5,6,7,8-hexahydro-1H-pyrazolo[3,4-g]isoquinolin-4a-yl)(thiazol-2-yl)methanone] | < 20
14 | < 0.5 | O=C(c1nccs1)[C@]12Cc3cnn(-c4ccc(F)cc4)c3C=C1CCN(S(=O)(=O)c1ccccc1)C2 [Example 12D, (R)-(1-(4-fluorophenyl)-6-(phenylsulfonyl)-4,4a,5,6,7,8-hexahydro-1H-pyrazolo [3,4-g]isoquinolin-4a-yl)(thiazol-2-yl)methanone] | < 20
15 | < 0.5 | Cc1ccnc(C(=O)[C@]23Cc4cnn(-c5ccc(F)cc5)c4C=C2CCN(S(=O)(=O)c2ccc(F)c(F)c2)C3)c1 [Example 11U, (R)-(6-((3,4-difluorophenyl)sulfonyl)-1-(4-fluorophenyl)-4,4a,5,6,7,8-hexahydro-1H-pyrazolo[3,4-g]isoquinolin-4a-yl)(4-methylpyridin-2-yl)methanone] | < 20
16 | < 0.5 | Cc1cccc(S(=O)(=O)N2CCC3=Cc4c(cnn4-c4ccc(F)cc4)C[C@]3(C(=O)c3nccs3)C2)c1 [Example 12A, (R)-(1-(4-fluorophenyl)-6-(m-tolylsulfonyl)-4,4a,5,6,7,8-hexahydro-1H-pyrazolo[3,4-g]isoquinolin-4a-yl)(thiazol-2-yl)methanone] | < 20
17 | < 0.5 | Cc1cnc(C(=O)[C@]23Cc4cnn(-c5ccc(F)cc5)c4C=C2CCN(S(=O)(=O)c2ccn(C)n2)C3)s1 [Example 12S, (R)-(1-(4-fluorophenyl)-6-((1-methyl-1H-pyrazol-3-yl)sulfonyl)-4,4a,5,6,7,8-hexahydro-1H-pyrazolo[3,4-g]isoquinolin-4a-yl)(5-methylthiazol-2-yl)methanone] | < 20
18 | < 0.5 | O=C(c1nccs1)[C@]12Cc3cnn(-c4ccc(F)cc4)c3C=C1CCN(S(=O)(=O)c1cccc(C(F)(F)F)c1)C2 [Example 12, (R)-(1-(4-fluorophenyl)-6-((3-(trifluoromethyl)phenyl)sulfonyl)-4,4a,5,6,7,8-hexahydro-1H-pyrazolo[3,4-g]isoquinolin-4a-yl)(thiazol-2-yl)methanone] | < 20
